Measured values as given in patent US8530456B2, “Sonic hedgehog modulators” (President and Fellows of Harvard College, priority 2008, dated 2013).
Entries after “also recorded” stand apart in the source; their conditions may differ.

Key:
[1] = system: Ptc1-/- MEF cell line (Gli1-beta-galactosidase reporter); test: Ptc1-/- cell line beta-galactosidase reporter assay; assay type: cell-based, mouse
Experimental: To explore further the potential mechanism of Shh pathway inhibition involving direct perturbation of the ShhN protein complex, the same compounds were tested in a Ptc1^−/− cell line derived from mouse embryos lacking Ptc1 function. The cell line had both Ptc1 alleles replaced with a β-galoctosidase (β-gal) reporter (Surajit et al., supra). Because Ptc1 inhibits Hh pathway activation by repressing Smo function, removing both Ptc1 alleles results in constitutive pathway activation.
The ptc−/− cell line was derived from an embryonic mouse fibroblast cell line transfected with a β-galactosidase construct. The cell line was cultured in DMEM with 10% FBS until confluent, and then cells were plated 1:5 into white 96-well optical-bottom plates and allowed to reach a confluent state over 3-4 days while incubating at 37° C. After reaching confluency, the medium was removed from each well, and the cells were treated with test compound (for example, robotnikinin or cyclopamine) (EMD Biosciences, San Diego, Calif.) in DMEM with 0.5% FBS. After a 30 hour incubation, the wells were treated with Beta-Glo assay reagent (Promega, Madison, Wis.) and allowed to be gently agitated for 30 minutes at room temperature. After the agitation was complete, plates were read with an Envision Multi-Label Reader 2102 luminometer.

[2] = biological target: ShhN (N-terminal fragment of Sonic Hedgehog protein) (Homo sapiens, UniProt Q15465); test: Surface plasmon resonance (SPR) binding to immobilized purified ShhN; details: for ShhN binding in SPR: 0.78-25 μM compound
Experimental: Biacore™ T100 (GE Healthcare, Uppsala, Sweden) was used to perform the experiments reported herein. Sensor surface preparation and interaction analyses experiments were performed at 25° C. Prior to surface preparation, lyophilized ShhN protein (R&D Systems) was dissolved in either water or PBS buffer, at pH 7.4 and protein purity determined by Nu-Page 4-12% Bis-Tris gel in MOPS buffer with a silver stain sensor preparation.
ShhN was immobilized onto series S sensor chip CM4 via a standard N-ethyl-N′-(dimethylaminopropyl)carbodiimide/N-hydroxysuccinimide (EDC/NHS) amine coupling procedures (Biacore Sensor Surface Handbook, 2003, version AA, Biacore, Uppsala, Sweden). Shh was diluted to 10 μg/mL in 10 mM sodium acetate pH 5.5 for these procedures and resultant immobilization levels were 1000-1200 R.U.s. Control surfaces were prepared similarly without protein derivatization and utilized as a reference surfaces for compound binding experiments.
For compound interaction analyses, 0.01 M Hepes, pH 7.4, 0.15 M NaCl, 0.05% Surfactant P20 and 5% DMSO was used for both running and sample buffers. Compound samples were prepared by serial dilution in the range 0.78 uM-25 uM and flowed over control and derivatized surfaces for two minutes at a flow-rate of 80 μL/min. Zero concentration blank buffer cycles were included as negative control samples. Solvent correction procedures were included to compensate for any DMSO related bulk refractive index variations and performed as described previously (Karlsson, R. et al. Anal. Biochem. 278, 1-13, 2000). Non-specific binding effects to sensor surface CM4 were absent for all analyses reported.
Data analysis was carried out using Biacore T100 evaluation software v1.1.1. Data were prepared by subtraction of reference surface data and blank buffer sample data, a procedure commonly referred to as ‘double referencing’ (Myszka, D. G. J. Mol. Recognit. 12, 1-6, 1999). Solvent correction was then applied as described previously.

ShhN protein (rmShh) = biological target: T1, ShhN protein (rmShh) (Mus musculus, UniProt Q62226); test: Small molecule microarray (SMM) screen for ShhN binding; details: screened in triplicate
T1 construct: Recombinant mouse amino-terminal peptide 461-CF (rmShh); purchased R & D Systems 461-CF
Experimental: A screen of the ShhN protein was performed using small molecule microarrays (SMMs) containing a collection of approximately 10,000 diversity-oriented synthesis (DOS) compounds and natural products that has been reported by Koehler and co-workers, in which the entire library was arrayed on a single microscope slide (Bradner, J. E. et al. Chem. Biol. 13, 493-504, 2006). Three SMM slides were used to screen for small molecules that bind the ShhN protein, while two slides were designated as protein-free negative controls. Binding was detected by the use of a biotinylated anti-ShhN antibody, followed by incubation with streptavidin alexa 647. The treated slides were then scanned with a microarray plate reader. The duplicate negative controls eliminated many false positives, while screening in triplicate increased the accuracy of the results. Microarray image analysis was performed with GenePix Pro software (Molecular Devices, Sunnyvale Calif.). […] The software was then used to select all remaining possible positives in the ShhN-treated slides that exceeded our criteria for fluorescence intensity threshold. […]
The three experimental SMM slides were incubated on parafilm (Alcon, Menasha Wis.) with 300 μL of a 25 μg/mL rmShh solution in a 0.1% BSA in PBS buffer. […] Slides were dried by centrifugation and scanned with a GenePix 4000B microarray plate reader (Axon Instruments, Sunnyvale Calif.). […]

[3] = system: Gli1 (Gli-dependent firefly luciferase reporter, ShhL2 cell line); test: ShhL2 (Shh-LIGHT2) Gli-luciferase reporter assay; assay type: cell-based
Experimental: We examined the activity of the new series of AML compounds in Shh-LIGHT2 cells (ATCC, Manassas Va.) (Tapaile, J., et al., 2000 supra), which is an NIH3T3 cell line with a Gli-dependent firefly luciferase reporter.
Therefore, compounds that repress Gli1 activity would be putative inhibitors of Shh signaling in the cell line in which the experiments were carried out. We examined the activity of the new series of AML compounds in the Shh Light II cell line, or ShhL2 line (ATCC, Manassas Va.) (Tapaile, J., et al., 2000 supra), which is an NIH3T3 line transformed with a Gli-luciferase construct along with zeocin and G418 resistance vectors to select for the transformed strains during normal culturing.
(§1) ShhL2 cells are NIHT3 cells that have been transfected with a Gli-luciferase construct, as previously reported (Tapaile, et al. 2000; Surajit, et al., supra). ShhL2 cells (ATCC, Manassas, Va.) were cultured with DMEM (GIBCO, Carlsbad, Calif.), 10% Calf Bovine Serum (ATCC Manassas, Va.), 0.4 mg/ml G-418 (ATCC, Manassas, Va.), 0.15 mg/ml Zeocin (Invitrogen, Carlsbad Calif., Cat. No. R25001) at 37° C. When confluent, the cells were plated 1:5 into white 96-well optical-bottom plates and allowed to reach confluence over approximately 5-7 days. When confluent, the medium was removed and the ShhL2 cells were treated with test compound (for example, robotnikinin or cyclopamine) (EMD Biosciences, San Diego, Calif.) in DMEM with 0.5% Calf Bovine Serum. After incubation for 30 hours, each well was treated with 100 μL of Bright-Glo luciferase assay reagent (Promega, Madison, Wis.) and the plate was read with an Envision Multi-Label Reader 2102 luminometer (Perkin Elmer, Waltham, Mass.). Wells treated in identical fashion were then treated with Cell Titer-Glo reagent (Promega, Madison, Wis.) and read with an Envision Multi-Label Reader 2102 luminometer after being allowed to stand 10 minutes at room temperature.

ShhL2 cells = test: Cell Titer Glo cell viability assay run in parallel in ShhL2 cells; assay type: cell-based
Experimental: as §1

Gli1 mRNA = Gli1 mRNA by qPCR in primary human keratinocytes; assay type: cell-based
Source text: (§2) Culturing of primary human keratinocytes was previously described (Nguyen, B. C., et al., Genes & Dev. 20:1028-1042 (2006)). The full thickness skin model, EpiDermFT System (MatTek, Ashland), consists of normal, human-derived epidermal keratinocytes and normal, human-derived dermal fibroblasts which have been cultured to form a multilayered, highly differentiated model of the human dermis and epidermis.
(§3) Gene expression was compared by quantifying mRNA levels by real time RT-PCR. For this, total RNA preparations (1 μg) were used in a reverse transcriptase reaction with a mix of oligonucleotide dT and random hexamer primers, followed by real time PCR with gene-specific primers (Gli1: Qiagen Quantitect PrimerAssay QT00060501; Gli2: Qiagen Quantitect PrimerAssay QT00018648), using an Icycler IQTM real time detection system (Bio-Rad) according to the manufacturer's recommendation, with SYBR Green (Bio-Rad) for detection. Each sample was tested in triplicate, and the results were normalized by real time PCR of the same cDNA with 36B4 primers (36B4 forward primer: 5′-GCAATGTTGCCAGTGTCTGT 3; reverse primer, 5′-GCCTTGACCTTTTCAGCAAG-3′).

Gli2 mRNA = Gli2 mRNA by qPCR in primary human keratinocytes; assay type: cell-based
Source text: as §2, §3

[4] = system: Gli1 and Gli2 transcripts; test: Synthetic skin (primary human keratinocytes on collagen matrix): qPCR and histology; assay type: cell-based
Source text: as §2, §3

hair regrowth = test: Topical application after depilation, hair regrowth in mice; assay type: in vivo, mouse
Experimental: Eight-week-old C57BL/6J female mice were purchased from Charles River (Boston, Mass.). Mice were housed in community cages at the animal facilities of the Massachusetts General Hospital. All mice were fed water and murine chow ad libitum and kept under 12 h light/dark cycles. Active hair growth (anagen) was induced in the back skin during the telogen phase of the hair cycle by application of the wax-rosin mixture with subsequent depilation, as described before (Paus, R., Stenn, K. S., Link, R. E. (1990). Br. J. Dermatol. 122, 777-784).
Robotnokinin was dissolved in 10% DMSO and applied every day topically on the depilated skin surface. Mice were kept in individual cages to avoid scratching. Telogen-anagen transformation was studied at the following time points: telogen (unmanipulated skin), anagen (day 8 postdepilation) and very late anagen (day 12 postdepilation) (see FIG. 8a, top panels). In all experiments, the neck region of back skin was harvested parallel to the vertebral line for either heat-mediated epidermal separation and subsequent real time RT-PCR analysis for Gli1 and Gli2 expression levels or embedded for histology on frozen sections (see FIG. 8a, bottom panel, and FIG. 8b).

Sequence of ShhN (N-terminal fragment of Sonic Hedgehog protein) (Q15465 24-197): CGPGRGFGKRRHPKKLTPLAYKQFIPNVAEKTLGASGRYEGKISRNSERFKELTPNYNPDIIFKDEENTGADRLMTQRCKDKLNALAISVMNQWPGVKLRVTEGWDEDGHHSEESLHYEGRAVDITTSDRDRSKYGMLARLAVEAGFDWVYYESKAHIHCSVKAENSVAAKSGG
T1 sequence (Q62226 25-198 limits assumed): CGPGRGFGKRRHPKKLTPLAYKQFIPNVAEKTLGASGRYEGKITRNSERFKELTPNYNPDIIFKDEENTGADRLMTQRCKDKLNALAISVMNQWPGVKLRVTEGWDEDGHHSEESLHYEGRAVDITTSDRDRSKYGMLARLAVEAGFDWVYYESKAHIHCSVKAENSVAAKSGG

CC1=C2C[C@H]3[C@@H](CC=C4C[C@@H](O)CC[C@@]43C)[C@@H]2CC[C@]12O[C@@H]1C[C@H](C)CN[C@H]1[C@H]2C [cyclopamine, reference compound]
pathway inhibition in Ptc1-/- cell line ([1]; 6.6 μM cyclopamine): significant pathway inhibition

CC1CNC(=O)C(CC(=O)N(CCO)Cc2ccccc2)CC=CCCC(N)C(=O)O1 (centres unmarked) [AML1]
ShhN binding in SPR [2]: binding to ShhN in a concentration-dependant fashion | SMM screen result (ShhN protein (rmShh)): assay positives

CC1COC(=O)C(N)CCC=CCC(CC(=O)N(CCO)Cc2ccccc2)C(=O)N1 (centres unmarked) [AML2]
ShhN binding in SPR [2]: binding to ShhN in a concentration-dependant fashion | SMM screen result (ShhN protein (rmShh)): assay positives

O=C(C[C@@H]1C/C=C/CCC(=O)O[C@H](c2ccccc2)CNC1=O)NCc1ccc(Cl)cc1 [robotnikinin, N-(4-chlorobenzyl)-2-((2R,6S,E)-5,12-dioxo-2-phenyl-1-oxa-4-azacyclododec-8-en-6-yl)acetamide]
ShhN binding in SPR [2]: ShhN-binding capacity at concentrations between 1.56 μM and 25 μM; also recorded: concentration-dependent binding to purified ShhN | dissociation time in SPR ([2]; compared with AML1 and AML2): longer dissociation time than AML1 and AML2 | EC50 ([3]; Shh Light2, ShhL2 cell line, Bright Glo luciferase, approximations based on concentration curves): ~4 µM | concentration giving inhibition comparable to 6.25 μM cyclopamine ([3]; Shh-LIGHT2 cells): above 30 μM | inhibition with co-administered purmorphamine ([3]; Shh-LIGHT2 cells, ShhN-conditioned medium plus 3.6 μM purmorphamine): virtually all of the inhibitory effect was eliminated; also recorded: negligible inhibition | Gli1 ECmax ([3]; ShhL2 cell line, concentration of maximal effect): 62.5 µM | Shh pathway inhibition / Gli1 suppression ([3]; ShhN-conditioned medium, 30 h incubation): concentration-dependent inhibition of ShhN-induced pathway activation; also recorded: strong concentration dependent Gli1 suppression | % CI (% cyclopamine inhibition), footnote d ([3]; may be taken relative to mock treatment (comparable to 6 μM cyclopamine), cytotoxic compounds: at highest effective non-cytotoxic concentration): 91% | cytotoxicity (ShhL2 cells; Cell Titer Glo, ShhL2 cells, concentration above which cytotoxic): none | cytotoxicity (ShhL2 cells; cell titer viability assay): No significant cytotoxicity was observed | pathway inhibition in Ptc1-/- cell line ([1]; 30 h, any concentration tested, normalized for cell titer): no pathway inhibition was observed; also recorded: pathway inhibition was not observed | effect on Gli1/Gli2 mRNA with co-administered Smo agonists purmorphamine and SAG (Gli1 mRNA; primary human keratinocytes): this effect is blocked | endogenous Gli1 mRNA level (Gli1 mRNA; qPCR, normalized for cell titer): lowers levels | endogenous Gli2 mRNA level (Gli2 mRNA): lowers levels; also recorded: lower levels of endogenous Gli2 mRNA | histology of treated synthetic skin [4]: histologically normal | Gli1 and Gli2 mRNA levels in synthetic skin ([4]; qPCR after incubation): reduced levels of Gli1 and Gli2 mRNA | hair follicles in skin cross sections (hair regrowth; 12 days post depilation): lack of hair follicles | hair regrowth (hair regrowth; topical, daily, 8 and 12 days post depilation, C57BL/6J mice): blocked hair regrowth
